Where “and” joins values, the source holds several entries; their conditions need not be identical. Equal values may be shown once.
Tests used:
[1] = Closed cell (Static) method
[2] = molar heat capacity at constant pressure; settings: 101.33 kPa, Liquid, Thin-film microcalorimeter

CC(C)=CCC[C@H](C)CCO [(S)-3,7-dimethyl-6-octen-1-ol]
[1], Liquid
Settings | vapor or sublimation pressure
273.65 K | 0.000129 kPa and 0.00013 kPa and 0.000133 kPa
278.15 K | 0.000231 kPa and 0.000228 kPa and 0.000235 kPa
283.15 K | 0.00043 kPa and 0.000432 kPa
288.15 K | 0.00077 kPa and 0.000777 kPa and 0.000779 kPa
293.15 K | 0.001361 kPa and 0.001358 kPa
293.17 K | 0.001319 kPa and 0.001331 kPa and 0.001328 kPa
298.15 K | 0.00233 kPa and 0.002328 kPa and 0.002323 kPa
298.18 K | 0.002272 kPa
298.19 K | 0.00227 kPa
298.2 K | 0.002271 kPa
303.15 K | 0.003871 kPa and 0.003875 kPa and 0.003876 kPa
303.16 K | 0.003787 kPa
303.19 K | 0.003806 kPa
303.2 K | 0.003795 kPa
308.15 K | 0.006284 kPa and 0.006296 kPa and 0.006302 kPa
308.19 K | 0.006203 kPa and 0.006213 kPa
308.21 K | 0.006198 kPa
313.2 K | 0.009899 kPa
313.21 K | 0.009904 kPa and 0.009905 kPa
318.23 K | 0.01566 kPa
318.24 K | 0.01565 kPa and 0.01566 kPa
323.22 K | 0.0243 kPa
323.23 K | 0.02431 kPa
328.2 K | 0.03714 kPa
328.21 K | 0.03718 kPa and 0.03714 kPa
333.23 K | 0.05589 kPa and 0.05585 kPa and 0.05576 kPa
338.19 K | 0.08215 kPa
338.2 K | 0.08219 kPa and 0.08218 kPa
343.19 K | 0.1192 kPa and 0.1193 kPa
348.14 K | 0.1705 kPa
348.15 K | 0.1706 kPa
353.1 K | 0.2403 kPa and 0.2404 kPa
358.01 K | 0.3337 kPa
358.02 K | 0.3345 kPa and 0.3342 kPa
362.97 K | 0.4601 kPa
362.98 K | 0.4602 kPa and 0.4607 kPa

[2]
Settings | molar heat capacity at constant pressure [J/K/mol]
260.2 K | 316.4
265 K | 320.7
270 K | 325.5
275 K | 330.5
280 K | 335.6
285 K | 340.9
290 K | 346.5
295 K | 352.3
300 K | 357.9
305 K | 363.6
310 K | 369.3
315 K | 375
320 K | 380.6
325 K | 386.5
330 K | 392.9
335 K | 398.8
340 K | 404
345 K | 409.2
350 K | 414.6
355 K | 420

CC(C)=CCC/C(C)=C/CO [(E)-3,7-dimethyl-2,6-octadien-1-ol]
[1], Liquid
Settings | vapor or sublimation pressure
273.65 K | 0.000112 kPa and 0.000109 kPa and 0.000111 kPa
278.15 K | 0.00019 kPa and 0.000192 kPa and 0.000195 kPa
283.15 K | 0.000357 kPa and 0.000355 kPa and 0.000358 kPa
288.15 K | 0.000641 kPa and 0.000637 kPa and 0.000639 kPa
293.11 K | 0.001082 kPa
293.14 K | 0.001071 kPa and 0.001079 kPa
293.15 K | 0.001116 kPa and 0.001114 kPa and 0.001118 kPa
298.15 K | 0.001894 kPa [middle of 6 runs]
303.15 K | 0.003189 kPa and 0.003178 kPa and 0.00319 kPa
303.17 K | 0.003087 kPa and 0.003101 kPa
303.18 K | 0.003091 kPa
308.15 K | 0.005168 kPa and 0.00517 kPa and 0.005167 kPa
308.19 K | 0.005018 kPa and 0.005019 kPa and 0.005016 kPa
313.16 K | 0.008035 kPa and 0.008051 kPa and 0.008055 kPa
318.16 K | 0.01263 kPa and 0.01264 kPa and 0.01265 kPa
323.17 K | 0.0196 kPa and 0.01965 kPa and 0.0197 kPa
328.17 K | 0.03003 kPa and 0.0301 kPa
333.16 K | 0.04478 kPa and 0.04499 kPa and 0.04502 kPa
338.14 K | 0.06605 kPa and 0.06612 kPa and 0.06614 kPa
343.13 K | 0.09605 kPa and 0.09608 kPa and 0.0961 kPa
348.1 K | 0.1372 kPa and 0.1373 kPa
353.07 K | 0.194 kPa and 0.1941 kPa
358.04 K | 0.2693 kPa and 0.2697 kPa
362.92 K | 0.3686 kPa and 0.3687 kPa
362.94 K | 0.3684 kPa

[2]
Settings | molar heat capacity at constant pressure [J/K/mol]
260.8 K | 310.1
265 K | 313.5
270 K | 317.5
275 K | 322.2
280 K | 326.7
285 K | 331.3
290 K | 336.2
295 K | 341.3
300 K | 346.1
305 K | 350.9
310 K | 355.8
315 K | 360.7
320 K | 365.6
325 K | 370.6
330 K | 376.2
335 K | 381.1
340 K | 385.5
345 K | 389.8
350 K | 394.3
355 K | 398.6

CC1(C)[C@H]2CC[C@]1(C)[C@H](O)C2 [(1S-endo)-1,7,7-trimethylbicyclo[2.2.1]heptan-2-ol]
[1]
Settings | vapor or sublimation pressure
293.12 K, Crystal 2 | 0.001843 kPa
293.13 K, Crystal 2 | 0.001845 kPa and 0.001846 kPa
298.14 K, Crystal 2 | 0.003114 kPa and 0.003117 kPa
298.15 K, Crystal 2 | 0.003118 kPa
303.16 K, Crystal 2 | 0.005163 kPa and 0.005164 kPa
303.17 K, Crystal 2 | 0.005165 kPa
308.16 K, Crystal 2 | 0.008376 kPa
308.18 K, Crystal 2 | 0.008394 kPa and 0.008395 kPa
313.13 K, Crystal 2 | 0.01335 kPa
313.14 K, Crystal 2 | 0.01336 kPa and 0.01337 kPa
318.14 K, Crystal 2 | 0.02101 kPa and 0.02103 kPa
318.15 K, Crystal 2 | 0.02103 kPa
323.17 K, Crystal 2 | 0.03267 kPa
323.18 K, Crystal 2 | 0.03269 kPa
323.19 K, Crystal 2 | 0.03273 kPa
328.14 K, Crystal 2 | 0.04968 kPa and 0.04971 kPa
328.15 K, Crystal 2 | 0.04973 kPa
333.18 K, Crystal 2 | 0.07494 kPa and 0.07496 kPa and 0.07498 kPa
338.2 K, Crystal 2 | 0.1112 kPa
338.21 K, Crystal 2 | 0.1112 kPa
343.15 K, Crystal 2 | 0.1618 kPa and 0.1619 kPa
346.99 K, Crystal 2 | 0.2143 kPa
347.09 K, Crystal 2 | 0.2157 kPa
347.1 K, Crystal 2 | 0.2156 kPa
348.11 K, Crystal 1 | 0.2309 kPa and 0.2308 kPa and 0.2307 kPa
352.88 K, Crystal 1 | 0.3183 kPa
352.89 K, Crystal 1 | 0.3183 kPa and 0.3184 kPa
357.96 K, Crystal 1 | 0.4417 kPa and 0.4418 kPa
357.97 K, Crystal 1 | 0.4424 kPa
362.89 K, Crystal 1 | 0.6015 kPa
362.9 K, Crystal 1 | 0.6015 kPa
362.94 K, Crystal 1 | 0.6029 kPa
